Assay results published in ChEMBL document CHEMBL5291721, “A preclinical secondary pharmacology resource illuminates target-adverse drug reaction associations of marketed drugs” (Nat Commun, 2023).

Experiments:
[1] = molecular target: Vascular endothelial growth factor receptor 2 (Homo sapiens, UniProt P35968); assay type: functional
[2] = molecular target: T1, Gamma-aminobutyric acid receptor subunit alpha-1/alpha-2/beta-2/gamma-2 (Homo sapiens, UniProt P14867+P18507+P47869+P47870); assay type: functional, cell-based
T1 sequence (P14867 whole entry): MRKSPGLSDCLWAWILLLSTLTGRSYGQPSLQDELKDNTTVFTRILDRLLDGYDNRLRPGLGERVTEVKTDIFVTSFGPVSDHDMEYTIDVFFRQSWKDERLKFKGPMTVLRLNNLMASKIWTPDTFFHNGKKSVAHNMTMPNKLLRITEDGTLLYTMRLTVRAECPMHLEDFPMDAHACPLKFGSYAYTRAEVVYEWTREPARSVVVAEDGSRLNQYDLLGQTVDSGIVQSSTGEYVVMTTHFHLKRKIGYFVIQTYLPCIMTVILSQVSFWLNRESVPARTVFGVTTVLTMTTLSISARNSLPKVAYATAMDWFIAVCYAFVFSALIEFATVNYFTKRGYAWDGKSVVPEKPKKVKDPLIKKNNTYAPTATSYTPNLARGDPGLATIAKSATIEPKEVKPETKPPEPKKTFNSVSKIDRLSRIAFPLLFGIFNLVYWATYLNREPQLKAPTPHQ
T1 sequence (P47870 whole entry): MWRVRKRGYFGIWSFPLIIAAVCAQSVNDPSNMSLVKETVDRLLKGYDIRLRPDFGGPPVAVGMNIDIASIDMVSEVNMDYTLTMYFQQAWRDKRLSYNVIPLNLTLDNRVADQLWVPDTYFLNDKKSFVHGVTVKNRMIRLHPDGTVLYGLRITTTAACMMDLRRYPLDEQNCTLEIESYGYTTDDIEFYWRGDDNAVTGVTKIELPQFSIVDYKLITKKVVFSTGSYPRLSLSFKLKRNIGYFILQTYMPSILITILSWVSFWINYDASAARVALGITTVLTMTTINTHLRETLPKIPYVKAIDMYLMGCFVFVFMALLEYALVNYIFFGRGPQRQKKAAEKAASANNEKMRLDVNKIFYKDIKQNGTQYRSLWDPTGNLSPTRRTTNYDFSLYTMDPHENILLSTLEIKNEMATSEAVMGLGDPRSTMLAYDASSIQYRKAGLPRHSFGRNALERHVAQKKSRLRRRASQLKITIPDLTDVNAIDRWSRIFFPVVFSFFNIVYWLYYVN
T1 sequence (P18507 whole entry): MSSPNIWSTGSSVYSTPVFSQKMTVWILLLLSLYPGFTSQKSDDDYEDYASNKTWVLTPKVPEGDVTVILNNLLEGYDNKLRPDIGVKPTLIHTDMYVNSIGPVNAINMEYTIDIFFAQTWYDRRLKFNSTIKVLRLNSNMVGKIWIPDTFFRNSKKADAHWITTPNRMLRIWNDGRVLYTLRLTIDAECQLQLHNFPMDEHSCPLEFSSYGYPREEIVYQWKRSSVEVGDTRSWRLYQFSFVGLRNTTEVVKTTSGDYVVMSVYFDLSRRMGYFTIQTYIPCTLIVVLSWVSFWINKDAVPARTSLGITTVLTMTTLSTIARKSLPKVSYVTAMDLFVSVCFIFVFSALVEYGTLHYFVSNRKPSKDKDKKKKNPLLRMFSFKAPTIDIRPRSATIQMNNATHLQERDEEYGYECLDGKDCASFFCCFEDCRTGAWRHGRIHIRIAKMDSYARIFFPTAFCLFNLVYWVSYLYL
T1 sequence (P47869 whole entry): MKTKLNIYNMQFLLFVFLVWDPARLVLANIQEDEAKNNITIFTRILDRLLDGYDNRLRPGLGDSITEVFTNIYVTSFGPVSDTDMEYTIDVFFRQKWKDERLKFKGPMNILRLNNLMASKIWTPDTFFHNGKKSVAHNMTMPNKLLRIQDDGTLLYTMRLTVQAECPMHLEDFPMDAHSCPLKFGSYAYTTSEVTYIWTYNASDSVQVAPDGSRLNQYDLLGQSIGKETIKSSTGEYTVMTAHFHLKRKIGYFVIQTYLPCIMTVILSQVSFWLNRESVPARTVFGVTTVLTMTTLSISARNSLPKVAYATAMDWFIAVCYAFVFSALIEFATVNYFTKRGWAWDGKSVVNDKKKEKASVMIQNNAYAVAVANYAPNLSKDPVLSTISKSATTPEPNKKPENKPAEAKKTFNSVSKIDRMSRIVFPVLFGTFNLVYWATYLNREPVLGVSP

[3] = molecular target: T2, Estrogen receptor (Homo sapiens, UniProt P03372); assay type: functional
T2 sequence (P03372 whole entry): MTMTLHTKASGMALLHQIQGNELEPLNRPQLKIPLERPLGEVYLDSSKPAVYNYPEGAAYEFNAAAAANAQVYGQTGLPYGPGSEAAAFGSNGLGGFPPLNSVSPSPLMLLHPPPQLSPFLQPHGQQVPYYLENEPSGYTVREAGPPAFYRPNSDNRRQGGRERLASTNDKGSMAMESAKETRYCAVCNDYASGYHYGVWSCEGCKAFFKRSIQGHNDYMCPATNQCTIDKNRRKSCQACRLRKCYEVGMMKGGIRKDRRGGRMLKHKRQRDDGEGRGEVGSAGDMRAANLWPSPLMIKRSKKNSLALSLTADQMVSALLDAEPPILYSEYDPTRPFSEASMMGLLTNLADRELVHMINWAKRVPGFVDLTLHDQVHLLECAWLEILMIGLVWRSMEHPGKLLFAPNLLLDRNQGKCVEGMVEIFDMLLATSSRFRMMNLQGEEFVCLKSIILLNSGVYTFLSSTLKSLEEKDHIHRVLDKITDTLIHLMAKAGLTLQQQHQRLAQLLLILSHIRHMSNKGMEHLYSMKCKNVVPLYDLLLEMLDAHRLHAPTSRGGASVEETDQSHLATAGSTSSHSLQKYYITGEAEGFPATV

[4] = molecular target: T3, Peroxisome proliferator-activated receptor gamma (Homo sapiens, UniProt P37231); assay type: functional
T3 sequence (P37231 whole entry): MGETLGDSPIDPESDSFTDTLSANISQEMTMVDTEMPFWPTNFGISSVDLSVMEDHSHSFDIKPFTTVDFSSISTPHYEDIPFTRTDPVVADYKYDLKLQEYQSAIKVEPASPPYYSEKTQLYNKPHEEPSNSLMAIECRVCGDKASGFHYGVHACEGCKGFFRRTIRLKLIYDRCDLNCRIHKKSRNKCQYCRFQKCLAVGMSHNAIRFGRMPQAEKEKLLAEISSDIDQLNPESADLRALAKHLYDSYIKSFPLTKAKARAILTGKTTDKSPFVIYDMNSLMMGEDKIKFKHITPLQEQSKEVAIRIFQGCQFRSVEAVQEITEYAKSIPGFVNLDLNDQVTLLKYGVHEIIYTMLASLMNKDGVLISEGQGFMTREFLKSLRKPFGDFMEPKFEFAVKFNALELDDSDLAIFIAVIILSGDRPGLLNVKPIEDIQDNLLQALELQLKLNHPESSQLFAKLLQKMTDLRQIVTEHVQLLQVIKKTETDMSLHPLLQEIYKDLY

[5] = molecular target: T2, Estrogen receptor; assay type: functional; remark: listed apart in the source
[6] = molecular target: Receptor tyrosine-protein kinase erbB-2 (Homo sapiens, UniProt P04626); assay type: functional
Chain of Receptor tyrosine-protein kinase erbB-2 (P04626 whole entry): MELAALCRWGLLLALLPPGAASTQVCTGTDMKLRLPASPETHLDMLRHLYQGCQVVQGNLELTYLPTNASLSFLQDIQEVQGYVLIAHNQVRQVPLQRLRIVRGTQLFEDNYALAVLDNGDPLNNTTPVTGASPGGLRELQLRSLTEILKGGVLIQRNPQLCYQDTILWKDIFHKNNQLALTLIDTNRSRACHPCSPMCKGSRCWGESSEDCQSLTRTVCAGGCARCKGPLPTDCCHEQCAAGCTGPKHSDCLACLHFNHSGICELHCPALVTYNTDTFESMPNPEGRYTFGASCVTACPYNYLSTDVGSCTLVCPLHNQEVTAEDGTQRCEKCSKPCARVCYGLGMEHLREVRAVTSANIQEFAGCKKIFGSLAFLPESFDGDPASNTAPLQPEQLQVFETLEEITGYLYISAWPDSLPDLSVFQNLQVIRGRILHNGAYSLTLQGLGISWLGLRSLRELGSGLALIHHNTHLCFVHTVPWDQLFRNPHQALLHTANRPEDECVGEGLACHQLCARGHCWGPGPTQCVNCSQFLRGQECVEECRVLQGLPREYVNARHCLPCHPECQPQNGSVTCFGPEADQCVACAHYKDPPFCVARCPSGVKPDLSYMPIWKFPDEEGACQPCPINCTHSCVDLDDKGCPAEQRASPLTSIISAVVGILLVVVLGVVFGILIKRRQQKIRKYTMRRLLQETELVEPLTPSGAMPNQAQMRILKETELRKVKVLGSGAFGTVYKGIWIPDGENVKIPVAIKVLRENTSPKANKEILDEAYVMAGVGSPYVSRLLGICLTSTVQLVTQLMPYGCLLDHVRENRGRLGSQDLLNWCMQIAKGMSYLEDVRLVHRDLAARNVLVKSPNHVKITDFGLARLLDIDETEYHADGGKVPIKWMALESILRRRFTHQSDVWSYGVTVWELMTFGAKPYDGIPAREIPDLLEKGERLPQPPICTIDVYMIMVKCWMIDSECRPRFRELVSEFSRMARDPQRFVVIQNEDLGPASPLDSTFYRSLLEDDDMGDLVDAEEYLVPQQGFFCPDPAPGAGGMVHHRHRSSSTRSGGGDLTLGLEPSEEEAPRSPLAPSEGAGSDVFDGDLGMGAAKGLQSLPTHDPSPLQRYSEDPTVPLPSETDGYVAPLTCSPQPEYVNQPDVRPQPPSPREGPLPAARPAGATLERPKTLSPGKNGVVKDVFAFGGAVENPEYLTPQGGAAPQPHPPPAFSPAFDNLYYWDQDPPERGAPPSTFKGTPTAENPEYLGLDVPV

[7] = molecular target: T1, Gamma-aminobutyric acid receptor subunit alpha-1/alpha-2/beta-2/gamma-2; assay type: functional, cell-based; remark: listed apart in the source
[8] = molecular target: T4, Androgen receptor (Homo sapiens, UniProt P10275)
T4 sequence (P10275 whole entry): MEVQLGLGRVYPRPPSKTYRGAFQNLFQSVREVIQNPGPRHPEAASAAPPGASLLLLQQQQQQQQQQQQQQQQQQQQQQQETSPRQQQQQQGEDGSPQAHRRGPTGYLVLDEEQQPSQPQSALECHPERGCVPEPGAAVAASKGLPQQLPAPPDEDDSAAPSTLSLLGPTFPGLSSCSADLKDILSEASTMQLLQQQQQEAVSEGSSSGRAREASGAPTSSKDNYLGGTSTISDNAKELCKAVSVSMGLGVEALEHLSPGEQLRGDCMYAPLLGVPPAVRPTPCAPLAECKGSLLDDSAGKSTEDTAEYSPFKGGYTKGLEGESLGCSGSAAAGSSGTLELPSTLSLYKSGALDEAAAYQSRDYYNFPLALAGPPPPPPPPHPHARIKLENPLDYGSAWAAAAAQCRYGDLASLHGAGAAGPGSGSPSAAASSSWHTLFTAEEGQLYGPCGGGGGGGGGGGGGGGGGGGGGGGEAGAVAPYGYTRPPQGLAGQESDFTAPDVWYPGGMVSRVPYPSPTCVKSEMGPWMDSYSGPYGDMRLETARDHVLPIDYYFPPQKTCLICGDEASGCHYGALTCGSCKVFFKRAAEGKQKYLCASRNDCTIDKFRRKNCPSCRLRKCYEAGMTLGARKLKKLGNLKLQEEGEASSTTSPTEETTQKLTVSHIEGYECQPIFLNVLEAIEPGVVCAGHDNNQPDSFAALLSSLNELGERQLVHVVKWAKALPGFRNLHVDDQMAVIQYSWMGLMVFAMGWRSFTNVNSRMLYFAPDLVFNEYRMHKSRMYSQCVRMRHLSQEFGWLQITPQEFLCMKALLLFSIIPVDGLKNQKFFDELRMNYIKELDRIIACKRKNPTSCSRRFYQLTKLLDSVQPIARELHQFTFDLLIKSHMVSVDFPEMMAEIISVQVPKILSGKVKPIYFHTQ

[9] = molecular target: T1, Gamma-aminobutyric acid receptor subunit alpha-1/alpha-2/beta-2/gamma-2; assay type: protein-complex assay
[10] = molecular target: Gamma-aminobutyric acid receptor subunit alpha-1 (Rattus norvegicus, UniProt P62813)
Chain of Gamma-aminobutyric acid receptor subunit alpha-1 (P62813 whole entry): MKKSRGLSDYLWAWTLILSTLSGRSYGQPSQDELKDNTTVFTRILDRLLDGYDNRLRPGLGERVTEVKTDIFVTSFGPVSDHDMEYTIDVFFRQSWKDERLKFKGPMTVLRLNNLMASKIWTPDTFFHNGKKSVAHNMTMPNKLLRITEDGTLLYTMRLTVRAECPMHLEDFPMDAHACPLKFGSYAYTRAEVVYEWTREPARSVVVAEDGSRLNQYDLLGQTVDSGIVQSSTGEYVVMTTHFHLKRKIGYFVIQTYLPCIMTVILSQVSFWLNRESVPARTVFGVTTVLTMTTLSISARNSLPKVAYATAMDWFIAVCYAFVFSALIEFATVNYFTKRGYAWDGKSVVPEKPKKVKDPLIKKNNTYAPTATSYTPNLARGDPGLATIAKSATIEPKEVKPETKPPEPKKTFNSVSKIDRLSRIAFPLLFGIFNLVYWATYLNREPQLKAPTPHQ

Measured: AC50
Note: assay procedure not described here.

Chain of Vascular endothelial growth factor receptor 2 (P35968 whole entry): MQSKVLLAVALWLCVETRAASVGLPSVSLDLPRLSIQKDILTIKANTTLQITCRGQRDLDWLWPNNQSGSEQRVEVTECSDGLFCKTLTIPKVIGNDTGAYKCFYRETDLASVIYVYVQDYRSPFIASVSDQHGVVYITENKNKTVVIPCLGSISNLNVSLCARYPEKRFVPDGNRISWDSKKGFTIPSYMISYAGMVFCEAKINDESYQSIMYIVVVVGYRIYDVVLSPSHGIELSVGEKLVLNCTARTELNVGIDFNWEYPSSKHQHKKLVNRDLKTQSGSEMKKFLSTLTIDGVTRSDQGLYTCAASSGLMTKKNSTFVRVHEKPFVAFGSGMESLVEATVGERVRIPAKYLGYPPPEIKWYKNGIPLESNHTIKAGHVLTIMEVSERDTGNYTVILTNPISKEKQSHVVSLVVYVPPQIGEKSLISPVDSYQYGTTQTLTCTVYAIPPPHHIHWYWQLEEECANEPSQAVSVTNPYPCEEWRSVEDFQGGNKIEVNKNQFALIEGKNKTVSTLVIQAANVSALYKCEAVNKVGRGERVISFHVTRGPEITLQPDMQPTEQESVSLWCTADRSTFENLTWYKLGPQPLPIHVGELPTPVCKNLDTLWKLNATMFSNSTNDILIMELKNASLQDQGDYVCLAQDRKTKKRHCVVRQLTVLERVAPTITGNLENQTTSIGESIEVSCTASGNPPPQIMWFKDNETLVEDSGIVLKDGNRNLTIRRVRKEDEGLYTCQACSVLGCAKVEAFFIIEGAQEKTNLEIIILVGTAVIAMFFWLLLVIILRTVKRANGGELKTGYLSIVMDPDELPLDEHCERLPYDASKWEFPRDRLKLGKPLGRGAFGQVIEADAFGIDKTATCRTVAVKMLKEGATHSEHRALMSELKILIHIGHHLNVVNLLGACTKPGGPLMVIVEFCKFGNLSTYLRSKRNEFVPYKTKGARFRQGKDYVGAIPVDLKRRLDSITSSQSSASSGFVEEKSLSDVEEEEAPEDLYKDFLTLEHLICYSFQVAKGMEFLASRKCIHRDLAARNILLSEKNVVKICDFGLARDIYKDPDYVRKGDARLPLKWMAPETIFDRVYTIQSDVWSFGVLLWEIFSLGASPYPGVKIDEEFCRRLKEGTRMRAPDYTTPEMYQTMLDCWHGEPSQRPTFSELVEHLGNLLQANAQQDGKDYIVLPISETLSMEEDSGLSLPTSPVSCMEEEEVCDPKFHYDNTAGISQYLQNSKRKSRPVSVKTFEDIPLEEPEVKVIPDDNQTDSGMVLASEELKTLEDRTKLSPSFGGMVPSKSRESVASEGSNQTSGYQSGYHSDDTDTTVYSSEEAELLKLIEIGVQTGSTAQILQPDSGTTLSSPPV

CN1CC2c3ccccc3Oc3ccc(Cl)cc3C2C1 (stereo not drawn) [ASENAPINE]
6.5 µM: [2]
> 30 µM: [1] | [3] | [4] | [5] | [6] | [7]

O=C1[C@@H]2[C@H]3CC[C@H](C3)[C@@H]2C(=O)N1C[C@@H]1CCCC[C@H]1CN1CCN(c2nsc3ccccc23)CC1 [LURASIDONE]
> 30 µM: [8] | [1] | [2] | [3] | [9] | [4] | [5] | [6] | [7]

C[C@H](CCC(=O)O)[C@H]1CC[C@H]2[C@@H]3[C@H](O)C[C@@H]4C[C@H](O)CC[C@]4(C)[C@H]3CC[C@]12C [CHENODIOL]
> 3 µM: [1]
> 30 µM: [2] | [3] | [4] | [5] | [6] | [7]

COc1cc2c(cc1OC)C1CC(=O)C(CC(C)C)CN1CC2 (stereo not drawn) [TETRABENAZINE]
> 30 µM: [1] | [2] | [3] | [4] | [5] | [6] | [7]

C[C@H](Nc1ncnc2[nH]cnc12)c1cc2cccc(Cl)c2c(=O)n1-c1ccccc1 [DUVELISIB]
> 30 µM: [8] | [1] | [2] | [3] | [4] | [10] | [5] | [6] | [7]

Nc1c2c(nc3ccccc13)CCCC2O (stereo not drawn) [VELNACRINE]
> 10 µM: [5]
> 30 µM: [1] | [2] | [3] | [4] | [6] | [7]

Cn1cnc2c(F)c(Nc3ccc(Br)cc3F)c(C(=O)NOCCO)cc21 [BINIMETINIB]
> 30 µM: [1] | [2] | [3] | [4] | [5] | [6] | [7]
